Source: US12041939B2, “Enzyme-loaded pollen-mimicking microparticles for organophosphate detoxification of insect pollinators” (priority 2020, dated 2024)
Like-named read-outs stand apart in the source and are kept apart here.

How the values were obtained:
[1] = assay type: biochemical; conditions: for relative activity in paraoxon hydrolysis: OPT 0.5 mg ml^−1, 0.5 mM paraoxon, normalized to OPT-PIMs at pH 7.4
[2] = malathion hydrolysis assay (DTNB); assay type: biochemical; conditions: OPT 0.5 mg ml^−1, 0.44 mM malathion
[3] = assay type: biochemical
Experimental: Further experiments were aimed at better understanding the stability of the detoxifying system under significant thermal stress, as any treatment could experience high summer temperatures when administered to bees. […] Thus, experiments were conducted to determine whether microparticle encapsulation offers any protection from thermal denaturation. […]. […] The foregoing result is important for the potential application of the present design, as it has been shown capable of being administered at elevated temperatures.

[4] = assay type: biochemical; conditions: room temperature (25° C.)
Experimental: To gauge the time taken for treatment to lose functionality, bioactivity of each group treatment relative to OPT-PIMs was measured over time when kept at room temperature (25° C.). […] OPT-PIMs stored at 4° C. maintained almost 100% activity after 14 d (FIG. 3G). The microparticle's capacity for long-term bioactivity and protein sequestration indicates a practical shelf life of the design. Other enzyme-engineering efforts, such as genetic engineering of the catalytic and binding pockets, introducing additional chemical functionalities, such as disulfide bridges or fluorine moieties, or incorporation of additives such as sugars, polyols, detergents, polymers and amino acids, may improve the catalytic efficiency of OPT and further enhance its storage stability.

AChE = AChE activity assay in homogenized honeybees with paraoxon; assay type: biochemical, honeybee; conditions: 0.5 mM paraoxon
Text: FIGS. 5A-5F. Characterization of OPT-PIM efficacy through AChE activity assay and bee survival experiments. FIG. 5A is a schematic showing that formation of thiocholine from acetylthiocholine through AChE cleavage can be characterized using 5,5′-dithiobis-2-nitrobenzoic acid (DTNB). DTNB and thiocholine react to form TNB^2-, the absorbance of which can be measured at 412 nm. […] For this experiment, n=9. The positive control is homogenized honeybee cells without any paraoxon treatment; the negative control is homogenized honeybee cells treated with paraoxon but no free OPT or OPT-PIMs treatment. […]. […] FIG. 5E is a plot of exposure to paraoxon (15 μg g^−1 pollen) over 10 days (n=50). FIG. 5F is a plot of exposure to malathion (750 μg g^−1 pollen) over 10 days (n=50). Statistical analysis was performed by using one-way ANOVA tests (FIGS. 5B and 5D). Data are presented as means and error bars represent the standard deviation.
Efficacy and survival studies. The characterization of OPT-PIM efficacy was further validated via quantification of AChE activity when mixed with the above described treatment and paraoxon. […] Acetylthiocholine cleavage via AChE can be used to quantify AChE activity, as the thiocholine product reacts with DTNB to form TNB^2−, which has an absorbance at 412 nm (FIG. 5A). […]

bumblebees [5] = assay type: in vivo, Bombus impatiens
Text: (§1) FIGS. 5A-5F. Characterization of OPT-PIM efficacy through AChE activity assay and bee survival experiments. FIG. 5A is a schematic showing that formation of thiocholine from acetylthiocholine through AChE cleavage can be characterized using 5,5′-dithiobis-2-nitrobenzoic acid (DTNB). DTNB and thiocholine react to form TNB^2-, the absorbance of which can be measured at 412 nm. […] For this experiment, n=9. The positive control is homogenized honeybee cells without any paraoxon treatment; the negative control is homogenized honeybee cells treated with paraoxon but no free OPT or OPT-PIMs treatment. […] FIG. 5E is a plot of exposure to paraoxon (15 μg g^−1 pollen) over 10 days (n=50). FIG. 5F is a plot of exposure to malathion (750 μg g^−1 pollen) over 10 days (n=50). Statistical analysis was performed by using one-way ANOVA tests (FIGS. 5B and 5D). Data are presented as means and error bars represent the standard deviation.
(§2) Bumblebees consume approximately […] depending on body mass. Based on this figure, pollen balls were initially formed containing 0.432 μg g^−1 paraoxon and 9.383 μg g^−1 malathion to feed without enzyme treatment as a negative control. […] Pollen balls were tested containing 50 μg g^−1 paraoxon over 12 hours to measure the OPT-PIM impact against acute exposure.

bumblebees [6] = assay: bumblebee survival on malathion-contaminated pollen balls; assay type: in vivo, Bombus impatiens
Text: as §1, §2

[7] = assay type: biochemical; conditions: methyl paraoxon, visible nitrophenol formation
Text: Considering the loading efficiency decrease at higher PFCs and the intrinsic value of OPT, 5% was selected as a baseline to test OPT loading in PIMs. OPT presented 88.1% PLE (PLC=4.43%) at 5% PFC and 90.1% PLE (PLC=1.81%) at 2% PFC (FIG. 3C). […]. this dilution offered adequate sucrose to render the solution sufficiently attractive to bumblebees for consumption.

[8] = cited from earlier work
[9] = cited from earlier work; remark: listed apart in the source
honeybees = conditions: cited from earlier work
bumblebees [10] = assay: contaminated pollen balls fed without enzyme treatment; conditions: no enzyme treatment, after one week
[11] = system: acetylcholinesterase (AChE); conditions: versus malathion; cited from earlier work

amidohydrolase phosphotriesterase [free OPT]
relative activity in paraoxon hydrolysis ([1]; pH 4.8): 1.7%
relative activity in paraoxon hydrolysis ([1]; pH 7.4): 49.7%
Km ([1]; paraoxon, in 2 g ml^−1 sucrose): 4.8 mM
maximum velocity (Vmax) ([1]; paraoxon, in 2 g ml^−1 sucrose): 0.13 mM/min
relative activity in malathion hydrolysis ([2]; pH 4.8): 0.6%
relative activity in malathion hydrolysis ([2]; pH 7.4): 17.1%
relative activity in paraoxon hydrolysis after incubation ([3]; 30° C., relative to OPT-PIMs at 30° C.): half the bioactivity of OPT-PIMs
relative activity in paraoxon hydrolysis after incubation ([3]; 50° C., normalized to OPT-PIMs at 30° C.): 36.5%
relative activity in paraoxon hydrolysis after incubation ([3]; temperature>60° C., normalized to OPT-PIMs at 30° C.): 5.0%
activity retained on storage ([4]; after 7 days): ~30%
activity retained on storage ([4]; after 14 days): < 10%
AChE activity retained less than OPT-PIMs-treated samples (AChE): 18.8%
mortality (bumblebees [5]; 15 μg g^−1 paraoxon pollen balls, 50 μg ml^−1 OPT treatments, after 5 days): 100%
fatalities (bumblebees [5]; 50 μg g^−1 paraoxon pollen balls, 12 hours): 62.5%
mortality (bumblebees [6]; 750 μg g^−1 malathion pollen balls, after 5 days): 100%
survival (bumblebees [6]; microcolonies fed malathion-contaminated pollen patties, within/after 5 days (overview)): 0%
OPT concentration sufficient to initiate rapid hydrolysis [7]: 0.5 mg/mL
deactivation temperature ([8]; Co2+ OPT complex, pH 8.0-9.5): 60 °C
temperature at which thermostability is maintained ([8]; Co2+ OPT complex, pH 8.0-9.5): less than 45 °C
activity relative to maximum potential ([8]; pH 7.0): less than half of its maximum potential
Kcat Km^−1 [9]: 7.6e+07 M⁻¹ s⁻¹

CCOC(=O)CC(SP(=S)(OC)OC)C(=O)OCC (centres unmarked) [malathion]
oral LD50 (honeybees): 0.38 μg/bee
oral LD50 for honeybees (honeybees): 0.38 μg per bee
health effect of contaminated pollen balls (bumblebees [10]; 9.383 μg g^−1 malathion in pollen balls): no health deterioration

CCOP(=O)(OCC)Oc1ccc([N+](=O)[O-])cc1 [paraoxon]
relative AChE activity reduction (AChE; no free OPT or OPT-PIMs treatment (negative control)): ~72%
oral LD50 for honeybees (honeybees): 0.0175 μg per bee
health effect of contaminated pollen balls (bumblebees [10]; 0.432 μg g^−1 paraoxon in pollen balls): no health deterioration

CCOP(=S)(OCC)Oc1ccc([N+](=O)[O-])cc1 [parathion]
oral LD50 (honeybees): 0.175 μg/bee

CCOC(=O)CC(SP(=O)(OC)OC)C(=O)OCC (centres unmarked) [Malaoxon]
strength of AChE inhibition relative to malathion [11]: 1000 fold
